Test results as given in US20240261333A1, “NOVEL TARGETS FOR ENHANCING ANTI-TUMOR IMMUNITY” (THE BROAD INSTITUTE, INC., priority 2021, published 2024).

Assays:
[1] = system: A375 cells overexpressing B3GNT2; test: Intra- and extra-cellular poly-LacNAc by tomato lectin staining, flow cytometry; type: cell-based, human; conditions: A375 overexpressing B3GNT2, pretreated with different concentrations of inhibitor
Method: (§1) For glycosylation inhibition, cells were treated with 20 μg/mL Kifunensine (Cayman Chemical 10009437) or 2 mM Benzyl 2-acetamido-2-deoxy-alpha-D-galactopyranoside (BAG; Millipore Sigma B4894-100MG) for 48 h to inhibit N- and O-glycosylation respectively unless otherwise indicated. For MCL1 inhibition, cells were treated with 1-10 μM of S63845 (Selleck Chemicals S8383) or AZD5991 (Selleck Chemicals S8643) for 4 h before incubation with T cells. Both glycosylation and MCL1 inhibitors were maintained at indicated concentrations during co-culture with T cells.
Per condition, 5×10^5 cells were pelleted at 200×g for 5 min and washed once with PBS. Cell were fixed in 4% Formaldehyde in PBS at 4° C. for 10 mins. […] For each sample, 10,000 cells were analyzed on a CytoFLEX Flow Cytometer (Beckman Coulter) and quantified with FlowJo (FlowJo). For each experiment, median fluorescence values for 3 biological replicates were compared to determine statistical significance.

[2] = system: ESO T cells co-cultured with A375 cells; test: IFNγ ELISA in culture media of the T cell cytotoxicity assay; type: cell-based, human; conditions: B3GNT2-overexpressing A375 pretreated with inhibitor, E:T ratio of 3; kifunensine having a stronger effect
Method: Expanded T cells were thawed and maintained in culture media for 8-10 h before incubation with cancer cells. Cancer cells were seeded in 96-well plates and allowed to attach for 3-4 h before T cells were added at the appropriate effector to target cell (E:T) ratio. Paired controls with no T cells added were included for each condition. After 18 h, cancer cells were washed twice with PBS to remove T cells, passaged, and cultured for 2 days. Primary patient-derived cell models were not passaged after T cell co-culture. Viability was measured using CellTiter-Glo (Promega G7571). For each E:T ratio, percent survival was calculated as viability of the cells incubated with T cells divided by viability of the paired control that was not incubated with T cells. […]
To challenge cells with cytokines, cells were incubated with Interferon-γ (IFNγ; Cell Signaling Technology 80385S), FasL (AdipoGen AG-40B-0130-3010), TRAIL (R&D Systems 375-TL-010), or TNF-α (AdipoGen AG-40B-0019-3010) for 24 h. […] Cell viability was measured using CellTiter-Glo (Promega G7571) and protein was harvested for Western blots. […] IFNγ in the cell culture media of the T cell cytotoxic assay was quantified using an ELISA kit (Thermo Fisher Scientific KHC4021). […]

[3] = system: A375 (NY-ESO-1+, HLA-A2+) melanoma cells; test: T cell cytotoxicity assay (CellTiter-Glo), A375 against ESO T cells; type: cell-based, human; conditions: B3GNT2-overexpressing A375 pretreated with inhibitor, E:T ratio of 3, kifunensine having a stronger effect
Method: Expanded T cells were thawed and maintained in culture media for 8-10 h before incubation with cancer cells. Cancer cells were seeded in 96-well plates and allowed to attach for 3-4 h before T cells were added at the appropriate effector to target cell (E:T) ratio. Paired controls with no T cells added were included for each condition. After 18 h, cancer cells were washed twice with PBS to remove T cells, passaged, and cultured for 2 days. Primary patient-derived cell models were not passaged after T cell co-culture. Viability was measured using CellTiter-Glo (Promega G7571). For each E:T ratio, percent survival was calculated as viability of the cells incubated with T cells divided by viability of the paired control that was not incubated with T cells. For example, CD274-overexpressing melanoma cells that were co-cultured with ESO T cells were compared to CD274-overexpressing melanoma cells that were cultured without T cells in parallel. As an alternative cytotoxicity assay, A375 cells stably expressing Gaussia luciferase were co-cultured with ESO T cells. At each time point, 10% of cell culture media was used for the Gaussia luciferase assay (Targeting Systems GAR-2B) to directly measure cytotoxicity.
as §1

[4] = system: A375 cells overexpressing B3GNT2; test: Binding of recombinant T cell proteins to A375 cells, flow cytometry; type: cell-based, human; conditions: B3GNT2-overexpressing A375 treated with inhibitor; CD2, 4-1BB, TREML2, NKG2D
Method: as §1
Per condition, 5×10^5 cells were pelleted at 200×g for 5 min and washed once with PBS. Cell were fixed in 4% Formaldehyde in PBS at 4° C. for 10 mins. Cells were washed twice with PBS and resuspended in PBS with 25 μg/mL recombinant Fc chimera proteins [PVRIG (R&D Systems 9365-PV-050), CD226 (R&D Systems 666-DN-050), NKG2D (R&D 1299-NK-050), TREML2 (R&D Systems 3259-TL-050), CD2 (R&D Systems 1856-CD-050), CD96 (R&D Systems 9360-CD-050), TIGIT (BPS Bioscience 71186), CD27 (BPS Bioscience 71176), or 4-1BB (TNFRSF9; Sino Bio 10041-H03H)], 0.1 μg/mL HLA-A2:NY-ESO-1 Fab (Stewart-Jones et al., 2009), 5 μg/mL Fas antibody (Millipore Sigma 05-201), 25 μg/mL TNFRSF10B antibody (Novus Biologicals NB100-56618, 1:200), or Dylight 649 labeled Tomato Lectin (Vector Laboratories DL-1178, 1:100). Cells were incubated at 4° C. for 1 h. Cells were washed twice with PBS and resuspended in PBS with the appropriate secondary antibody [IgG Fc PE (Thermo Fisher Scientific 12-4998-82, 1:50), His Tag Alexa Fluor 647 (Thermo Fisher Scientific MA121315A647), mouse Alexa Fluor 568 (Thermo Fisher Scientific A-11031), or rabbit Alexa Fluor 647 (Thermo Fisher Scientific A-21244)]. Cells stained with Tomato Lectin were not incubated with additional secondary antibodies. […] For each sample, 10,000 cells were analyzed on a CytoFLEX Flow Cytometer (Beckman Coulter) and quantified with FlowJo (FlowJo). For each experiment, median fluorescence values for 3 biological replicates were compared to determine statistical significance.

N-glycan synthesis = conditions: cited from earlier work

Molecule	poly-LacNAc measured by tomato lectin staining [1]	T cell IFNγ secretion [2]	Cell survival against T cell cytotoxicity [3]	Binding of recombinant T cell proteins to A375 cells [4]	Inhibition of N-glycan synthesis (N-glycan synthesis)
CC(=O)N[C@H]1[C@@H](OCc2ccccc2)O[C@H](CO)[C@H](O)[C@@H]1O [BAG, benzyl-2-acetamido-2-deoxy-α-D-galactopyranoside]	reduced poly-LacNAc added by B3GNT2 in a dosage-dependent manner	increased T cell IFNγ secretion	reduced A375 survival	rescued the reduction in T cell protein binding	
tunicamycin					potent inhibitor of N-glycan synthesis
